Laboratory results published in patent US12187700B2, “Polymorphs and cocrystals of a cardiac troponin activator” (Amgen Inc., priority 2019, dated 2025).
Converted amounts (≈) assume the structure as drawn. Where a name gives a salt, the structure may show the parent alone.

Experiments:
Type in all cases: physicochemical
[1] = Moisture sorption (dynamic vapor sorption, hygroscopicity 0 to 95% RH); settings: for hygroscopicity: DVS, 0 to 95% RH
Procedure: Moisture Sorption Moisture sorption data was collected using a dynamic vapor sorption (DVS) analyzer. A sample size of approximately 5-10 mg was used in a quartz pan. Hygroscopicity was evaluated from 0 to 95% RH in increments of 5 or 10% RH. Data for adsorption and desorption cycles were collected. Equilibrium criteria were set at 0.002% weight change in 5 minute with a maximum equilibration time of 120 minutes.

[2] = Solubility in water (excess solid dispersed at least 24 hours at room temperature, UPLC-UV)
Procedure: Water: An excess of solid was added to water to produce a suspension and dispersed for at least 24 hours at room temperature. Suspensions were filtered. Filtrate was analyzed by UPLC-UV and compared against a standard curve to determine the solution concentration of the crystal form. Solids were analyzed by XRPD to determine the crystal form.

[3] = Solid stability of drug substance (chemical by UPLC; physical by XRPD, DSC, TGA); settings: stored at 25° C./60% RH, 40° C./75% RH, 40° C./ambient or 60° C./ambient conditions
Procedure: Solid Stability Drug substance was stored at 25 C/60% RH, 40 C/75% RH, 40 C/ambient or 60 C/ambient conditions. Chemical stability was determined at each timepoint by dissolving the drug substance in 50% acetonitrile water for UPLC analysis. Physical stability was determined by analyzing the solid by XRPD, DSC and TGA.

[4] = Static storage stability of cocrystals and amorphous form by XRPD
[5] = Physical form stability (dehydration of the monohydrate); settings: under vacuum at ambient temperature, at temperatures greater than 25° C. or at low humidity

SMILES: CS(=O)(=O)c1cncc(C(=O)N2[C@@H](C(=O)N[C@@H](c3cc(F)c(C(F)(F)F)cc3F)C3CC3)C[C@H]3C[C@H]32)c1 [Form IV]
- hygroscopicity [1]: non-hygroscopic
- solubility in water [2]: 10 µg/mL (≈ 18.4 µM)
- time physically and chemically stable on storage [3]: 13 weeks

SMILES: CS(=O)(=O)c1cncc(C(=O)N2[C@@H](C(=O)N[C@@H](c3cc(F)c(C(F)(F)F)cc3F)C3CC3)C[C@H]3C[C@H]32)c1 [Glycerol cocrystal]
- storage stability by XRPD ([4]; 40° C./75% RH storage 7 d): Stable

SMILES: CS(=O)(=O)c1cncc(C(=O)N2[C@@H](C(=O)N[C@@H](c3cc(F)c(C(F)(F)F)cc3F)C3CC3)C[C@H]3C[C@H]32)c1 [Urea cocrystal]
- storage stability by XRPD ([4]; 25° C./97% RH storage 7 d): Stable

SMILES: CS(=O)(=O)c1cncc(C(=O)N2[C@@H](C(=O)N[C@@H](c3cc(F)c(C(F)(F)F)cc3F)C3CC3)C[C@H]3C[C@H]32)c1 [Form III]
- stability of the monohydrate (dehydration) [5]: dehydrates

SMILES: CS(=O)(=O)c1cncc(C(=O)N2[C@@H](C(=O)N[C@@H](c3cc(F)c(C(F)(F)F)cc3F)C3CC3)C[C@H]3C[C@H]32)c1 [Form I]
- hygroscopicity [1]: non-hygroscopic
- solubility ([2]; thermodynamic from solid): 13 µg/mL (≈ 23.9 µM)
- time physically and chemically stable on storage [3]: 14 weeks

SMILES: CS(=O)(=O)c1cncc(C(=O)N2[C@@H](C(=O)N[C@@H](c3cc(F)c(C(F)(F)F)cc3F)C3CC3)C[C@H]3C[C@H]32)c1 [Hydrochloride Salt Form]
- hygroscopicity [1]: hygroscopic
- salt stability upon exposure to water ([1]; exposure to water during moisture sorption experiments or slurry in water): disproportionates to Free Form

SMILES: CS(=O)(=O)c1cncc(C(=O)N2[C@@H](C(=O)N[C@@H](c3cc(F)c(C(F)(F)F)cc3F)C3CC3)C[C@H]3C[C@H]32)c1 [Amorphous Form]
- time to crystallization upon static storage ([4]; static storage at 80° C./0% RH or 40° C./75% RH): ≤ 1 week
